{"source": "patent US9994758B2", "about": "“Microbial metabolism of chlorine oxyanions as a control of biogenic hydrogen sulfide production” (The Regents of the University of California, priority 2011, dated 2018)", "key": {"[1]": {"test_system": "marine sediment slurry microcosms", "experiment": "Sulfide inhibition in marine sediment slurry microcosms", "type": "cell-based", "conditions": "addition of chlorate and Dechloromarinus strain NSS, extended incubation for over 250 hours", "source_text": "In the absence of chlorate and Dechloromarinus strain NSS sulfide is readily produced."}, "Desulfovibrio vulgaris": {"test_system": "Desulfovibrio vulgaris", "experiment": "Inhibition of sulfidogenesis by sulfate-reducing bacteria (D. vulgaris culture, lactate/sulfate medium)", "type": "cell-based", "description": "Twelve tubes of basal anaerobic medium containing 15 mM lactate and 15 mM sulfate were inoculated with an active culture of D. vulgaris and incubated for 6 hours at 30° C., until a visible increase in optical density was observed. After six hours, the tubes were further inoculated with A. suillum and 15 mM chlorate prior to incubation overnight at 30° C., as outlined in Table 2."}}, "data": [{"compound": "[O-][Cl+2]([O-])O", "note": "[chlorate]", "values": [{"measurement": "sulfide production in marine sediment slurry microcosms (FIG. 4)", "setting": "[1]", "value": "sulfide inhibition"}, {"measurement": "sulfide production by D. vulgaris relative to control cells incubated without chlorate", "setting": "Desulfovibrio vulgaris; 15 mM chlorate alone, 24 hours, 30° C., 15 mM lactate and 15 mM sulfate", "value": 49, "unit": "%"}, {"measurement": "sulfide production by D. vulgaris relative to control cells incubated in the absence of A. suillum and chlorate", "setting": "Desulfovibrio vulgaris; 15 mM chlorate together with A. suillum, 24-hour incubation, 30° C., 15 mM lactate and 15 mM sulfate", "value": 17, "unit": "%"}, {"measurement": "antimicrobial activity against D. vulgaris", "setting": "Desulfovibrio vulgaris; chlorate at relatively low concentrations (15 mM)", "value": "has antimicrobial activity against D. vulgaris"}, {"measurement": "time course of sulfidogenesis by D. vulgaris (FIG. 6)", "setting": "Desulfovibrio vulgaris; treated with A. suillum (PS) and chlorate at 48 hours, relative to untreated control", "value": "immediate inhibition of sulfide production and removal of sulfide from the medium"}]}]}
